Results as given in patent US9695155B2, “Herbicidal substituted pyrimidinyloxy benzene compounds” (E. I. DU PONT DE NEMOURS AND COMPANY, priority 2013, dated 2017).

Columns and labels:
bromegrass, downy = experiment: Test D postemergence; type: in vivo, Bromus tectorum; settings: Bromus tectorum, post-emergence, Postemergence, scale 0 to 100 (0 no effect, 100 complete control), read-out: Plant response rating, Bromegrass, Downy
How it was run: (§1)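 Visual ratings from 0 (no effect) to 100 (complete control) relative to untreated plants were taken 7–21 days after treatment. Chemicals in a surfactant-containing solvent mixture were applied preemergence to seeds in silt loam, or postemergence to plants 2–18 cm tall (1–4 leaves) grown in a peat-based potting medium.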

fall panicum = experiment: Test E postemergence; type: in vivo, Panicum dichotomiflorum; settings: Panicum dichotomiflorum, post-emergence, read-out: Plant response rating, Panicum, Fall
How it was run: (§2)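 Response was scored visually on a 0-100 scale (100 = complete control) versus controls after 14 to 21 days in the greenhouse. Test chemicals, formulated with surfactant in a non-phytotoxic solvent mixture, had been applied preemergence to seeds in silt loam soil or postemergence to 1- to 4-leaf plants in potting medium.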

Italian ryegrass = experiment: Test E postemergence; type: in vivo, Lolium multiflorum; settings: Lolium multiflorum, post-emergence, read-out: Plant response rating, Ryegrass, Italian
How it was run: as §2

wild mustard = experiment: Test D preemergence; type: in vivo, Sinapis arvensis; settings: Brassica, pre-emergence, scale 0-100, read-out: Plant response rating, Mustard, Wild
How it was run: as §1

spring barley = experiment: Test D postemergence; type: in vivo, Hordeum vulgare; settings: Hordeum vulgare, post-emergence, Postemergence, scale 0 to 100 (0 no effect, 100 complete control), read-out: Plant response rating, Barley, Spring
How it was run: as §1

winter barley = experiment: Test D postemergence; type: in vivo, Hordeum vulgare; settings: Hordeum vulgare, post-emergence, Postemergence, scale 0 to 100 (0 no effect, 100 complete control), read-out: Plant response rating, Barley, Winter
How it was run: as §1

oilseed rape = experiment: Test D postemergence; type: in vivo, Brassica napus; settings: Brassica napus, post-emergence, scale 0 to 100 (0 no effect, 100 complete control), read-out: Plant response rating, Oilseed Rape
How it was run: as §1

field poppy = experiment: Test D postemergence; type: in vivo, Papaver rhoeas; settings: Papaver rhoeas, post-emergence, scale 0 to 100 (0 no effect, 100 complete control), read-out: Plant response rating, Field Poppy
How it was run: as §1

pigweed = experiment: Test D preemergence; type: in vivo, Amaranthus retroflexus; settings: Amaranthus retroflexus, pre-emergence
How it was run: as §1

wild radish = experiment: Test D preemergence; type: in vivo, Raphanus raphanistrum; settings: Raphanus raphanistrum, pre-emergence
How it was run: as §1

chamomile = experiment: Test D preemergence; type: in vivo, Matricaria inodora; settings: Tripleurospermum inodorum, pre-emergence, scale 0-100, read-out: Plant response rating, Chamomile
How it was run: as §1

dayflower = experiment: Test E postemergence; type: in vivo, Commelina virginica; settings: Commelina virginica, post-emergence, read-out: Plant response rating, Dayflower, VA
How it was run: as §2

wild poinsettia = experiment: Test E postemergence; type: in vivo, Euphorbia heterophylla; settings: Euphorbia heterophylla, post-emergence, read-out: Plant response rating, Poinsettia, Wild
How it was run: as §2

[1] = Postemergence, 31 g ai/ha, scale 0 to 100
[2] = Postemergence, 62 g ai/ha, scale 0 to 100
[3] = Postemergence, 125 g ai/ha, scale 0 to 100
[4] = Postemergence, 250 g ai/ha, scale 0 to 100
[5] = postemergence, 16 g ai/ha, scale 0 to 100, 0 no effect, 100 complete control

With `N#Cc1cccc(Oc2ncc(Br)cn2)c1-n1cc(C(F)(F)F)cn1` [Compound 59, 3-[(5-bromo-2-pyrimidinyl)oxy]-2-[4-(trifluoromethyl)-1H-pyrazol-1-yl]benzonitrile] the pest or weed control at 31 g/ha (bromegrass, downy; 31 g ai/ha) was 20%, the pest or weed control at 62 g/ha (bromegrass, downy; 62 g ai/ha) was 20% and the pest or weed control at 125 g/ha (bromegrass, downy; 125 g ai/ha) was 25%. For the same molecule, the pest or weed control at 250 g/ha (bromegrass, downy; 250 g ai/ha) was 30%, the pest or weed control at 31 g/ha (fall panicum; [1]) was 20% and the pest or weed control at 62 g/ha (fall panicum; [2]) was 20%. The pest or weed control at 125 g/ha (fall panicum; [3]) was 30%, the pest or weed control at 250 g/ha (fall panicum; [4]) was 45% and the pest or weed control at 16 g/ha (fall panicum; [5]) was 10%. The pest or weed control at 31 g/ha (Italian ryegrass; [1]) was 0%, the pest or weed control at 62 g/ha (Italian ryegrass; [2]) was 15% and the pest or weed control at 125 g/ha (Italian ryegrass; [3]) was 25%. The pest or weed control at 250 g/ha (Italian ryegrass; [4]) was 60%, the pest or weed control at 16 g/ha (Italian ryegrass; [5]) was 0% and the pest or weed control at 31 g/ha (wild mustard; 31 g ai/ha) was 15%. It also gave a pest or weed control at 62 g/ha (wild mustard; 62 g ai/ha) of 100%, a pest or weed control at 125 g/ha (wild mustard; 125 g ai/ha) of 100% and a pest or weed control at 250 g/ha (wild mustard; 250 g ai/ha) of 100%. It also gave a plant injury at 31 g/ha (spring barley; 31 g ai/ha) of 10%, a plant injury at 62 g/ha (spring barley; 62 g ai/ha) of 20% and a plant injury at 125 g/ha (spring barley; 125 g ai/ha) of 20%. It also gave a plant injury at 250 g/ha (spring barley; 250 g ai/ha) of 35%, a plant injury at 31 g/ha (winter barley; 31 g ai/ha) of 10% and a plant injury at 62 g/ha (winter barley; 62 g ai/ha) of 15%. The plant injury at 125 g/ha (winter barley; 125 g ai/ha) was 15%, the plant injury at 250 g/ha (winter barley; 250 g ai/ha) was 25% and the plant injury at 31 g/ha (oilseed rape; 31 g ai/ha) was 65%. The plant injury at 62 g/ha (oilseed rape; 62 g ai/ha) was 65%, the plant injury at 125 g/ha (oilseed rape; 125 g ai/ha) was 75% and the plant injury at 250 g/ha (oilseed rape; 250 g ai/ha) was 100%. For the same molecule, the pest or weed control at 31 g/ha (field poppy; 31 g ai/ha) was 70%, the pest or weed control at 62 g/ha (field poppy; 62 g ai/ha) was 65% and the pest or weed control at 125 g/ha (field poppy; 125 g ai/ha) was 100%. It also gave a pest or weed control at 250 g/ha (field poppy; 250 g ai/ha) of 100%, a pest or weed control at 31 g/ha (pigweed; 31 g ai/ha, scale 0 (no effect) to 100 (complete control), read-out: Plant response rating, Pigweed) of 100% and a pest or weed control at 62 g/ha (pigweed; 62 g ai/ha, scale 0-100, read-out: Plant response rating, Pigweed) of 100%. The pest or weed control at 125 g/ha (pigweed; 125 g ai/ha, scale 0-100, read-out: Plant response rating, Pigweed) was 100%, the pest or weed control at 250 g/ha (pigweed; 250 g ai/ha, scale 0-100, read-out: Plant response rating, Pigweed) was 100% and the pest or weed control at 31 g/ha (wild radish; 31 g ai/ha, scale 0 (no effect) to 100 (complete control), read-out: Plant response rating, Radish, Wild) was 95%. The pest or weed control at 62 g/ha (wild radish; 62 g ai/ha, scale 0-100, read-out: Plant response rating, Radish, Wild) was 100%, the pest or weed control at 125 g/ha (wild radish; 125 g ai/ha, scale 0-100, read-out: Plant response rating, Radish, Wild) was 95% and the pest or weed control at 250 g/ha (wild radish; 250 g ai/ha, scale 0-100, read-out: Plant response rating, Radish, Wild) was 100%. It also gave a pest or weed control at 31 g/ha (chamomile; 31 g ai/ha) of 10%, a pest or weed control at 62 g/ha (chamomile; 62 g ai/ha) of 15% and a pest or weed control at 125 g/ha (chamomile; 125 g ai/ha) of 95%. It also gave a pest or weed control at 250 g/ha (chamomile; 250 g ai/ha) of 85%, a pest or weed control at 31 g/ha (dayflower; [1]) of 35% and a pest or weed control at 62 g/ha (dayflower; [2]) of 50%. It also gave a pest or weed control at 125 g/ha (dayflower; [3]) of 70%, a pest or weed control at 250 g/ha (dayflower; [4]) of 100% and a pest or weed control at 16 g/ha (dayflower; [5]) of 20%. For the same molecule, the pest or weed control at 31 g/ha (wild poinsettia; [1]) was 50%, the pest or weed control at 62 g/ha (wild poinsettia; [2]) was 60% and the pest or weed control at 125 g/ha (wild poinsettia; [3]) was 65%. The pest or weed control at 250 g/ha (wild poinsettia; [4]) was 80% and the pest or weed control at 16 g/ha (wild poinsettia; [5]) was 50%.
